Data taken from US12440610B2, “Coated medical devices and methods of inhibiting implant-associated infections” (UNIVERSITY OF CINCINNATI, priority 2017, dated 2025).
Several values for one entry are separate records, joined by “and”; a condition that tells them apart may be missing. Equal entries are not always repeated.

What was measured:
physchem = details: 65 °C, organic solvent or mixture, thermodynamic from solid
Protocol: The process involved heating the ethanol to 65° C. and slowly adding the solid solute under bath sonication and manual agitation until the resulting solution was transparent. Dip coating was then carried out at room temperature immediately after removing the stock solutions from the heated water bath.
The reported solubility in the literature of the above antibiotics in ethanol are incompletely studied.

[1] = test system: methicillin resistant S. aureus (MRSA); test: In vitro bacterial adherence and colonization of coated implants, MRSA; assay type: cell-based; details: 24 hours incubation; for reduction of MRSA adherent to PTFE in vitro: coated PTFE; for reduction of MRSA adherent to PTFE in vitro / reduction of MRSA adherent to titanium screws in vitro: vs vehicle-coated controls; for reduction of MRSA adherent to silk suture in vitro: coated silk suture, vs vehicle (100% ethanol)-coated controls; for reduction of MRSA adherent to titanium screws in vitro: coated titanium screws
Protocol: Small pieces of PTFE (5 mm×5 mm), silk suture (2 cm), and titanium screws antibiotic-coated and vehicle (100% ethanol)-coated, were prepared for analysis as in Example 1.2. Bacteria was prepared as in 2.3 and 1000 colony forming units (cfus) in 300 μL was placed in the wells of 96-well plates. The antibiotic-coated and vehicle-coated pieces were then immersed and incubated for 24 hours at 37° C., 95% humidity (n=15 per group). Pieces were then placed in 10 mL sterile PBS and bath sonicated for 10 minutes to release adherent bacteria. Bacteria were quantified by the plate dilution method.

[2] = cited from earlier work; for reported solubility in ethanol/alcohol (in words): literature
[3] = test system: P. aeruginosa (strain 762); test: In vitro bacterial adherence and colonization of coated implants, P. aeruginosa; assay type: cell-based; details: for reduction of P. aeruginosa adherent to PTFE in vitro / reduction of P. aeruginosa adherent to silk suture in vitro / reduction of P. aeruginosa adherent to titanium screws in vitro: 24 hours incubation, vs vehicle-coated controls; for reduction of P. aeruginosa adherent to silk suture in vitro: coated silk suture
Protocol: Bacteria was prepared as in 2.3 and 1000 colony forming units (cfus) in 300 μL was placed in the wells of 96-well plates. […] Pieces were then placed in 10 mL sterile PBS and bath sonicated for 10 minutes to release adherent bacteria. Bacteria were quantified by the plate dilution method.

[4] = test system: methicillin resistant S. aureus (MRSA); test: Subcutaneous implant and infection of mice, MRSA colonization of implant; details: CF-1 mice, 2.5 million cfu, 3 days post infection; for reduction of MRSA colonization of PTFE in vivo: subcutaneous coated PTFE; for reduction of MRSA colonization of silk suture in vivo: subcutaneous coated silk suture; for reduction of MRSA colonization of titanium screws in vivo: subcutaneous coated titanium screws
From the text: (§1) Intact 5 cm sections of PTFE graft, full 75 cm length of silk suture, and individual titanium screws were dip-coated into each antibiotic solution and immediately withdrawn at a rate of ˜200 mm/'s. Thin films of antibiotic were subsequently formed as the ethanol evaporated.
(§2) After the PTFE, silk suture, and titanium are withdrawn from the antibiotic stock solution, they were allowed to further dry overnight at ambient conditions at room temperature. Vehicle (100% ethanol)-coated pieces were prepared in an identical manner, substituting absolute ethanol for the antibiotic stock solutions. PTFE implants were then cut to 5 mm×5 mm pieces, and silk suture was cut to 2 cm length for use in vitro and in vivo. Titanium screws were not further manipulated prior to use in vitro and in vivo.
(§3) MRSA was obtained from the clinical microbiology lab of Shriner's Hospital for Children (Cincinnati, OH). […] P. aeruginosa was grown from frozen glycerol stock overnight on TSB agar plates. MRSA was grown overnight from frozen glycerol stock on TSB agar plates with 5% sheep's blood. […] Bacteria were then washed twice by centrifugation at 3000×g for 10 min and resuspension in 0.9% NaCl. The optical density of the suspended bacteria was determined at 550 nm light and final inoculating concentration calculated from standard curves specific to each strain. Bacteria remained in 0.9% NaCl for in viva testing but were placed back into TSB for in vitro testing.
(§4) CF-1 mice were anesthetized with 120 mg/kg ketamine/16 mg/kg xylazine injected intraperitoneally and their backs shaved with electric clippers. A 2 cm incision was made in the back and implants (5 mm×5 mm PTFE, 2 cm silk suture, or titanium screws) were placed subcutaneously (n=9 per group).
(§5) Mice were sacrificed 3 days post infection. The implant capsule was entered with sterile instruments and the implant was removed and placed in 10 mL of sterile PBS. […] The implants and tissue were placed in a bath sonicator for 10 min to release adherent bacteria. Bacteria were then quantified by the plate dilution method. The most concentrated solution plated for each sample was a 1:100 dilution.

[5] = test system: P. aeruginosa (strain 762); test: Subcutaneous implant and infection of mice, P. aeruginosa colonization of implant; details: CF-1 mice, 2 million cfu, 3 days post infection; for reduction of P. aeruginosa colonization of PTFE in vivo: subcutaneous coated PTFE; for reduction of P. aeruginosa colonization of silk suture in vivo: subcutaneous coated silk suture; for reduction of P. aeruginosa colonization of titanium screws in vivo: subcutaneous coated titanium screws
From the text: as §1, §2, §3, §4, §5

solubility (physchem) | SMILES | reduction of MRSA adherent to PTFE in vitro [1] | reduction of MRSA adherent to silk suture in vitro [1] | reduction of MRSA adherent to titanium screws in vitro [1] | reported solubility in ethanol/alcohol (in words) [2] | reduction of P. aeruginosa adherent to PTFE in vitro ([3]; coated PTFE) | reduction of P. aeruginosa adherent to silk suture in vitro [3] | reduction of P. aeruginosa adherent to titanium screws in vitro ([3]; coated titanium screws) | reduction of MRSA colonization of PTFE in vivo [4] | reduction of MRSA colonization of silk suture in vivo [4] | reduction of MRSA colonization of titanium screws in vivo [4] | reduction of P. aeruginosa colonization of PTFE in vivo [5] | reduction of P. aeruginosa colonization of silk suture in vivo [5] | reduction of P. aeruginosa colonization of titanium screws in vivo [5] | also measured
41000 µg/mL and 80000 µM | C[C@H]1c2cccc(O)c2C(=O)C2=C(O)[C@]3(O)C(=O)C(C(N)=O)=C(O)[C@@H](N(C)C)[C@@H]3[C@@H](O)[C@@H]21 [Doxycycline, Doxycycline Hyclate] | 5.7 log | 5.2 log | 5.3 log | sparingly soluble | 5.5 log | 4.4 log | 6.4 log | 4.6 log and 4.7 log | 3.2 log and 2.1 log | 3.1 log and 3.0 log | 4.4 log and 2.7 log | 1.2 log and 1.1 log | 3.7 log and 2.8 log | reduction of MRSA adherent to titanium screws in vitro ([1]; listed as doxycycline): 5.2 log; reduction of P. aeruginosa adherent to PTFE in vitro ([3]; coated PTFE, listed as doxycycline): 6.1 log; reduction of P. aeruginosa adherent to silk suture in vitro ([3]; listed as doxycycline): 6.0 log
 | C[C@H]1COc2c(N3CCN(C)CC3)c(F)cc3c(=O)c(C(=O)O)cn1c23 [Levofloxacin] | 3.9 log | 5.2 log | 5.3 log |  | 6.2 log | 6.0 log | 6.4 log | 4.5 log and 3.7 log | 5.1 log and 4.0 log | 3.3 log and 3.0 log | 4.4 log and 3.7 log | 3.9 log and 4.3 log | 4.0 log and 3.3 log | reduction of MRSA adherent to PTFE in vitro ([1]; listed as levofloxacin): 5.7 log; reduction of MRSA adherent to titanium screws in vitro ([1]; listed as levofloxacin): 5.2 log; reduction of P. aeruginosa adherent to PTFE in vitro ([3]; coated PTFE, listed as levofloxacin): 6.1 log
166000 µg/mL and 227000 µM | CC[C@H]1OC(=O)[C@H](C)[C@@H](O[C@H]2C[C@@](C)(OC)[C@@H](O)[C@H](C)O2)[C@H](C)[C@@H](O[C@@H]2O[C@H](C)C[C@H](N(C)C)[C@H]2O)[C@](C)(O)C[C@@H](C)C(=O)[C@H](C)[C@@H](O)[C@]1(C)O [Erythromycin] | 5.7 log and 4.5 log | 5.2 log | 5.2 log and 5.3 log | freely soluble | 5.8 log | 1.6 log | 5.1 log | 3.8 log and 3.2 log | 5.1 log | 2.2 log and 2.5 log | 4.4 log and 3.3 log | 0.6 log and 0.4 log | 0.5 log and 0.4 log | ethanol solubility reported by Sigma ([2]; ethanol, vendor value): 50 mg/mL; PA adherence to PTFE (in words) ([3]; coated PTFE, in vitro, p<0.05): significantly reduced; PA adherence to titanium screws (in words) ([3]; coated titanium screws, in vitro, p<0.05): significantly reduced
 | O=C(N[C@H](CO)[C@H](O)c1ccc([N+](=O)[O-])cc1)C(Cl)Cl [Chloramphenicol] | 5.7 log | 5.2 log | 5.3 log |  |  |  |  | 3.1 log and 2.3 log | 1.2 log and 1.1 log | 2.2 log and 2.3 log |  |  |  | reduction of MRSA adherent to titanium screws in vitro ([1]; listed as chloramphenicol): 5.2 log
